Laboratory results reported in ChEMBL document CHEMBL3779772, “Synthesis of tetracyclic iminosugars fused benzo[e][1,3]thiazin-4-one and their HIV-RT inhibitory activity” (Bioorg Med Chem Lett, 2016).

Target: Human immunodeficiency virus type 1 reverse transcriptase (Human immunodeficiency virus 1, UniProt Q72547)
Experiment: Inhibition of HIV1 reverse transcriptase using DIG-labeled dNTPs as substrate after 1 hr by ELISA

Row | SMILES | IC50 [µM]
1 | O=C1CN2C(=O)c3ccccc3S[C@H]2[C@H]2[C@H](O)[C@H](O)CN12 | 8.21
2 | C[C@H]1C(=O)N2C[C@@H](O)[C@@H](O)[C@@H]2[C@@H]2Sc3ccccc3C(=O)N12 | 9.65
3 | O=C1CN2C(=O)c3ccccc3S[C@@H]2[C@H]2[C@H](O)[C@H](O)CN12 | 0.82

The next lines start with the values.

Row | IC50 [µM] | SMILES
4 | 2.01 | C[C@@H]1C(=O)N2C[C@@H](O)[C@@H](O)[C@@H]2[C@@H]2Sc3ccccc3C(=O)N12
5 | 4.21 | C[C@H]1C(=O)N2C[C@@H](O)[C@@H](O)[C@@H]2[C@H]2Sc3ccccc3C(=O)N21
